Key:
SARS-CoV-2 D614G strain = format: cell-based
IAV WSN = format: cell-based, influenza A virus

Structure (SMILES) | blocked SARS-CoV-2 infections (SARS-CoV-2 D614G strain) | reduction of SARS-CoV-2 infection (SARS-CoV-2 D614G strain) | reduction in viral titre after tenth passage (IAV WSN) [log]
O=C(Nc1ccccc1)Nc1ccccc1 [DPU, 1,3-diphenylurea, reference compound] | did not show any inhibitory effect | – | –
O=C(Nc1cc(C(F)(F)F)cc(C(F)(F)F)c1)Nc1cc(C(F)(F)F)cc(C(F)(F)F)c1 [DPUD-1, 1,3-bis(3,5-bis(trifluoromethyl)phenyl)urea] | – | greater than 99% | > 5

Reference: patent US20240116863A1, “DIPHENYL THIOUREA AND DIPHENYL UREA DERIVATIVES AS INHIBITORS OF ENDOCYTOSIS” (priority 2022, published 2024)
